Results reported in patent US20140194484A1, “Method of Treating Cachexia and Sarcopenia” (priority 2012, published 2014).
Entries after “also recorded” stand apart in the source; their conditions may differ.

Key:
[1] = tested on: patients with cachexia related to late stage colorectal cancer (CRC) or non-small cell lung cancer (NSCLC); type: in vivo, human
Protocol: An international multicentre, randomised, double blind, placebo controlled clinical trial was conducted with three parallel treatment groups with dose escalation within each group. Male and female patients aged between 25 to 80 years of age with cachexia related to underlying progressive or recurrent late stage colorectal cancer (CRC) or non-small cell lung cancer (NSCLC) were treated for 16 weeks with either S-pindolol or placebo. All patients received standard of care chemotherapy, radiotherapy and supportive care throughout the study at the discretion of their treating physician.
After provision of written informed consent, patients were assessed for eligibility at screening visits occurring from days -8 to -1. All eligible patients with written informed consent were given a set of performance tests [stair climbing power (SCP), hand grip strength (HGS), short performance battery test (SPBT) and the six minute walk test (SMWT)] and receive a 7 day course of placebo (1 tablet two times per day). Patients able to adequately complete the performance tests and with at least 80% compliance after 7 days (tablet count: at least […]) were then randomised on Day 0 to one of three treatment groups. All patients attended for visits on days 7, 14, 21, 28, (each +/−1 day), 56, 84, 112, and 140 (each +/−7 days).
The dose of S-pindolol or placebo was escalated by the investigator in a blinded fashion as described below under the heading “Dose Escalation”. The maximum period of drug titration was 4 weeks and the minimum period was 2 weeks. The patients were required to attend study visits at 1 week intervals after the start of the titration phase until completion of dose escalation. The aim of dose escalation for all subjects is to reach the target dose of 8 tablets per day (4 tablets bd) or the maximum tolerated dose for a particular patient within the first 4 week period. Dose titration was achieved by varying the number of tablets taken from bottle 2. This was done such that patients will be randomised to receive either placebo, 2.5 mg S-pindolol twice daily, 5 mg S-pindolol twice daily, 7.5 mg S-pindolol twice daily, or 10 mg S-pindolol twice daily according to tolerance of the study drug.
• S-pindolol or placebo was administered over a 16 week period. The treatment regimens for the study are summarised below. • At regular monitoring visits, a study monitor checked that all code-break envelopes remained intact.
• Product was taken orally with food as prescribed two times daily
A SMWT was conducted on days 0, 28, 56, 84 and 112. The SMWT was conducted as described by Paul L Enright (Respiratory Care, August 2003 Vol 48 No 8)^12. A straight, level and even area at least 20 meter long and 2 meters wide was marked out at each investigational site and used for the SMWT for all subjects at each time point. Identical chairs were placed at each end of the 20 meter track.
The SCP test was conducted on days 0, 28, 56, 84 and 112. The SCP test was modified from that described by Bean et al (Arch Phys Med Rehabil Vol 88, May 2007) to account for the different stairway configurations at the investigational sites.
A HGS test was conducted on days 0, 28, 56, 84 and 112. The HGS test was modified from that described by Bassey (1990; NIH, 1990). A standard handgrip dynamometer (provided by Sponsor) that can be adjusted for hand size was used at all sites. Both hands were alternately measured in triplicate, followed by a fourth attempt on the dominant hand only. After an explanation the subject squeezed the handle as forcefully as possible for a few seconds and then released. Subjects were encouraged verbally using a standard script and the best score (in kilograms) of the dominant hand recorded in the CRF.
DEXA was performed at selected DEXA scan centres on days at day -1, 56 and 112.
The maximum period of drug titration was 4 weeks and the minimum period was 2 weeks. […]

[2] = tested on: pre-clinical models of cancer cachexia; assay: pre-clinical models of cancer cachexia; type: in vivo
[3] = high dose (10 mg bd), ITT population, DEXA
[4] = compared with other β blockers studied

CC(C)NC[C@H](O)COc1cccc2[nH]ccc12 [S-pindolol]
Six minute walk test change ([1]; 2.5 and 10 mg bd vs placebo): trend towards dose response
Stair climbing power change ([1]; 2.5 and 10 mg bd vs placebo): trend towards dose response
Hand Grip Strength change, efficacy compared to placebo ([1]; high dose (10 mg bd), ITT population): statistically significant
Absolute weight change (primary endpoint), efficacy compared to placebo ([1]; high dose (10 mg bd), ITT population, 16 weeks): statistically significant
Fat mass change, efficacy compared to placebo [1, 3]: statistically significant
Lean mass change, efficacy compared to placebo [1, 3]: statistically significant
survival, difference between arms (FIG. 7) ([1]; low dose, high dose MT-102 and placebo arms): No significant differences in survival
benefit compared to placebo and racemic pindolol (FIG. 4) ([2]; FIG. 4): particularly beneficial
effects on aspects of cancer cachexia [2, 4]: significant effects on all aspects
impact upon survival [2, 4]: greatest impact upon survival
efficacy compared with racemic pindolol ([2]; dose for dose basis, treatment of cachexia): superior efficacy to the racemic parent material; also recorded: better effects than racemic pindolol
